Source: US5783179A, “C-reactive protein fragment with immunomodulatory activity” (Syntex (U.S.A.) Inc., priority 1991, dated 1998)

System: T241 fibrosarcoma lung metastases
Test: Mouse T241 fibrosarcoma model: evaluation of lung metastases after amputation of the tumor-bearing foot
Type: in vivo, male C57BL/6 mice
Conditions: Day 35, soluble CRP-peptide 1.25 μg per dose
Procedure: The CRP-peptide was assayed for activity in the mouse T241 fibrosarcoma model, whereby the ability to block lung metastasis formation is measured.
The procedures have been described in detail previously (Deodhar, et al, Cancer Res 42:5084-5088, 1982). Suspensions of 5×10^5 viable T241 fibrosarcoma cells in 0.1 ml of Hanks's balanced salt solution were injected subcutaneously into the dorsum of one hind foot of ten male C57BL/6 mice (Jackson Laboratories, Bar Harbor, Me.) per experiment. Seventeen days after tumor implantation, the tumor-bearing foot was amputated below the knee. The mean tumor weight at this stage was 152 ±58 (S.E.M.) mg. The tumor weight was determined by subtracting the weight of an amputated normal foot from that of a tumor-bearing foot. Previous studies have shown that T241 fibrosarcoma starts seeding the lung parenchyma by Day 10 after foot tumor implantation; by Day 17, virtually all animals have lung macro- and/or micrometastases. The animals were then randomized into control and experimental groups, and appropriate therapy was started after amputation of the tumor-bearing foot.
Treatments consisted of intravenous (orbital sinus) injections of liposomes containing CRP, liposomal CRP-peptide of Example 2, or liposomal CRP-peptide of Example 2 plus intraperitoneal injections of non-encapsulated soluble recombinant interleukin-2 (Cetus Corp., Emeryville, Calif.), or non-encapsulated interleukin-2 (IL-2) alone, whereas the control groups received either no treatment, liposomes containing buffer medium alone, or liposomes containing buffer medium plus non-encapsulated CRP peptide. […] On Day 35 of the experiment, all animals were killed, and the lungs were evaluated for number and size of metastases.
Tumor metastases could be clearly recognized as raised, hemorrhagic, opaque, and dense nodules, distinguishable from the smooth, glistening, spongy, and pink normal lung parenchyma. […] To obtain an approximate assessment of the total metastatic tumor burden in the lungs, the "metastatic index", reflecting both number and size of metastases, was calculated as follows. […]

In the case of H-IYLGGPFSPNVL-OH [Soluble CRP-peptide], the “No. of Metastatic Foci (+ SEM)” value (MLV: 0.25 μg CRP or CRP-peptide i.v. 3x per week for 2 weeks) is reported as 12.9 ± 2.9, the “No. Animals with Lung Metastases” value (MLV: 2.5 μmols lipid containing 0.25 μg CRP or CRP-peptide i.v. 3x per week for 2 weeks) is reported as 10/10 and the “Metastatic Index (+ SEM)” value (mean of group, MLV: 0.25 μg CRP or CRP-peptide i.v. 3x per week for 2 weeks) is reported as 49.7 ± 10.1.
